Values joined by “and” are separate entries in the source; they are usually repeats but may differ in a detail not shown here. Identical values can stand only once. Like-named read-outs stand apart in the source and are kept apart here.
Tests used:
[1] = system: E. faecalis ATCC29212-VSE; experiment: MIC and MBC microtiter plate assay; format: cell-based
[2] = system: S.aureus Mu50-VISA; experiment: MIC and MBC microtiter plate assay; format: cell-based, Staphylococcus aureus
[3] = system: Gram-positive control strains; experiment: MIC and MBC, summary over Gram-positive control strains; format: cell-based, S. aureus and Enterococcus spp.
[4] = system: S.aureus ATCC29213-MSSA; experiment: MIC and MBC microtiter plate assay; format: cell-based, Staphylococcus aureus
[5] = system: K. pneumoniae ATCC BAA-2814; experiment: MIC microtiter plate assay; format: cell-based, Klebsiella pneumoniae; conditions: K. pneumoniae ATCC BAA-2814 (MDR strain)
[6] = system: K. pneumoniae ATCC700603; experiment: MIC microtiter plate assay; format: cell-based, Klebsiella pneumoniae
[7] = system: E. faecalis ATCC51299-VRE; experiment: MIC and MBC microtiter plate assay, also with different inocula; format: cell-based
[8] = system: P. aeruginosa ATCC27853; experiment: MIC microtiter plate assay; format: cell-based, Pseudomonas aeruginosa
[9] = system: S.aureus ATCC12598-MSSA; experiment: MIC and MBC microtiter plate assay, also with different inocula; format: cell-based, Staphylococcus aureus
[10] = system: S.aureus USA300-CAMRSA; experiment: MIC and MBC microtiter plate assay; format: cell-based, Staphylococcus aureus
[11] = system: CaCo-2 cells; experiment: MTT cytotoxicity assay; format: cell-based, human; conditions: 24 h of incubation relative to untreated controls
Description: To evaluate the biological activity of the PBn series, compounds were screened for toxicity against the colon-rectal cancer cell line CaCo-2 (ATCC HTB-37). These human cancer cells were treated with solutions of the compounds at decreasing concentrations, starting from 100 μM up to 0.01 μM. The reference compound used for these assays was 5-Fluorouracil (5-Fu), a pyrimidine analogue belonging to the family of antimetabolite. […] Briefly, human colorectal adenocarcinoma cells (CaCo-2 HTB-37^TM Colorectal Adenocarcinoma Human, American Type Culture Collection, Manassas, VA, USA) were grown in Dulbecco’s MEM (DMEM) with 10% heat-inactivated fetal bovine serum, 2 mM L-Alanyl-L-Glutamine, penicillin-streptomycin (50 units-50 μg for mL) and incubated at 37 °C in a humidified atmosphere of 5% CO2, 95% air. CaCo-2 cells were plated in 96 well pates and incubated at 37 °C. The PBn series compounds and 5-FU were prepared as a 1 mM solution in 10 mL with 0.01% DMSO. Then, 24 h after plating, cells were treated with 20 μL of each solution. Untreated cells were used as controls. […] The results were read on a multiwell scanning spectrophotometer (AF2200 plate reader, Eppendorf, Milan, Italy), using a wavelength of 569 nm.

[12] = system: Gram-positive and Gram-negative ATCC strains; experiment: MIC and MBC, summary over Gram-positive and Gram-negative strains; format: cell-based
[13] = system: A. baumannii ATCC17978; experiment: MIC and MBC microtiter plate assay, also with different inocula; format: cell-based, Acinetobacter baumannii
[14] = system: E. coli ATCC25922; experiment: as above; format: cell-based, Escherichia coli
[15] = E. faecalis ATCC51299-VRE, value in brackets
[16] = E. faecalis ATCC51299, inoculum 1.00101 (1 × 10^1 CFU/mL)
[17] = E. faecalis ATCC51299, inoculum 1.00102 (1 × 10^2 CFU/mL)
[18] = E. faecalis ATCC51299, inoculum 1.00103 (1 × 10^3 CFU/mL)
[19] = E. faecalis ATCC51299, inoculum 1.00104 (1 × 10^4 CFU/mL)
[20] = E. faecalis ATCC51299, inoculum 1.00105 (1 × 10^5 CFU/mL, standard)
[21] = E. faecalis ATCC51299, inoculum 1.00106 (1 × 10^6 CFU/mL)
[22] = E. faecalis ATCC51299, inoculum 1.00107 (1 × 10^7 CFU/mL)
[23] = S. aureus ATCC12598, inoculum 1.00101 (1 × 10^1 CFU/mL)
[24] = S. aureus ATCC12598, inoculum 1.00102 (1 × 10^2 CFU/mL)
[25] = S. aureus ATCC12598, inoculum 1.00103 (1 × 10^3 CFU/mL)
[26] = S. aureus ATCC12598, inoculum 1.00104 (1 × 10^4 CFU/mL)
[27] = S. aureus ATCC12598, inoculum 1.00105 (1 × 10^5 CFU/mL, standard)
[28] = S. aureus ATCC12598, inoculum 1.00106 (1 × 10^6 CFU/mL)
[29] = S. aureus ATCC12598, inoculum 1.00107 (1 × 10^7 CFU/mL)
[30] = S.aureus ATCC12598-MSSA, value in brackets
[31] = A. baumannii ATCC17978, value in brackets

## CN(C)c1ccc(/C=C/c2cccc(/C=C/c3ccc(N(C)C)cc3)[n+]2C)cc1.[I-] [PB4]
[1]
  MBC: 4 µg/mL
  MIC: 0.5 µg/mL
[1]; value in brackets
  MBC: 7.82 µM
  MIC: 0.98 µM
[2]
  MBC: 2 µg/mL
  MIC: 0.25 µg/mL
[2]; value in brackets
  MBC: 3.91 µM
  MIC: 0.49 µM
[3]; Gram-positive control strains
  comparison between MIC and MBC values: three values of difference
[3]; over the Gram-positive control strains (S. aureus and Enterococcus spp.)
  MIC: ≤ 16 µg/mL
[4]
  MBC: 2 µg/mL
  MIC: 0.25 µg/mL
[4]; value in brackets
  MBC: 3.91 µM
  MIC: 0.49 µM
[5]
  MIC: 64 µg/mL
[5]; value in brackets
  MIC: 125.14 µM
[6]
  MIC: > 128 µg/mL
[6]; value in brackets
  MIC: > 250.27 µM
[7]; E. faecalis ATCC51299-VRE
  MBC: 4 µg/mL
  MIC: 0.5 mg/L
[7]; [15]
  MBC: 7.82 µM
  MIC: 0.98 µM
[7]; [16]
  MIC: 0.06 mg/L and 0.12 μM
[7]; [17]
  MIC: 0.25 mg/L
[7]; [18]
  MIC: 0.12 mg/L
[7]; [19]
  MIC: 0.12 mg/L and 0.24 μM
[7]; [20]
  MIC: 0.5 mg/L and 0.98 μM
[7]; [21]
  MIC: 0.5 mg/L and 0.98 μM
[7]; [22]
  MIC: 0.5 mg/L and 0.98 μM
[8]
  MIC: 64 µg/mL
[8]; value in brackets
  MIC: 125.14 µM
[9]; [23]
  MIC: < 0.015 mg/L and < 0.03 μM
[9]; [24]
  MIC: < 0.015 mg/L and < 0.03 μM
[9]; [25]
  MIC: < 0.03 μM and < 0.015 mg/L
[9]; [26]
  MIC: 0.03 mg/L and 0.06 μM
[9]; [27]
  MIC: 0.25 mg/L and 0.49 μM
[9]; [28]
  MIC: 0.25 mg/L and 0.49 μM
[9]; [29]
  MIC: 4 mg/L and 7.82 μM
[9]; S.aureus ATCC12598-MSSA
  MBC: 2 µg/mL
  MIC: 0.25 mg/L
[9]; [30]
  MBC: 3.91 µM
  MIC: 0.49 µM
[10]
  MBC: 2 µg/mL
  MIC: 0.25 µg/mL
[10]; value in brackets
  MBC: 3.91 µM
  MIC: 0.49 µM
[11]
  IC50: 319 nM and 320 nM
[12]; bactericidal effect defined as MBC/MIC ≤ 4
  MBC/MIC: ≤ 4
[13]; A. baumannii ATCC17978
  MBC: 0.5 µg/mL
  MIC: 0.25 mg/L
[13]; A. baumannii ATCC 17978, inoculum 1.00101 (1 × 10^1 CFU/mL)
  MIC: < 0.25 mg/L and < 0.49 μM
[13]; A. baumannii ATCC 17978, inoculum 1.00102 (1 × 10^2 CFU/mL)
  MIC: < 0.25 mg/L and < 0.49 μM
[13]; A. baumannii ATCC 17978, inoculum 1.00103 (1 × 10^3 CFU/mL)
  MIC: < 0.49 μM and < 0.25 mg/L
[13]; A. baumannii ATCC 17978, inoculum 1.00104 (1 × 10^4 CFU/mL)
  MIC: 0.25 mg/L and 0.49 μM
[13]; A. baumannii ATCC 17978, inoculum 1.00105 (1 × 10^5 CFU/mL)
  MIC: 0.25 mg/L and 0.49 μM
[13]; A. baumannii ATCC 17978, inoculum 1.00106 (1 × 10^6 CFU/mL)
  MIC: 0.49 µM
[13]; A. baumannii ATCC 17978, inoculum 1.00107 (1 × 10^7 CFU/mL)
  MIC: 1 mg/L and 1.96 μM
[13]; [31]
  MBC: 0.98 µM
  MIC: 0.49 µM
[14]
  MBC: 4 µg/mL
  MIC: 1 mg/L
[14]; inoculum 1.00101 (1 × 10^1 CFU/mL)
  MIC: 0.5 mg/L and 0.98 μM
[14]; inoculum 1.00102 (1 × 10^2 CFU/mL)
  MIC: 0.5 mg/L and 0.98 μM
[14]; inoculum 1.00103 (1 × 10^3 CFU/mL)
  MIC: 0.5 mg/L and 0.98 μM
[14]; inoculum 1.00104 (1 × 10^4 CFU/mL)
  MIC: 0.5 mg/L and 0.98 μM
[14]; inoculum 1.00105 (1 × 10^5 CFU/mL)
  MIC: 1 mg/L and 1.96 μM
[14]; inoculum 1.00106 (1 × 10^6 CFU/mL)
  MIC: 1 mg/L and 1.96 μM
[14]; inoculum 1.00107 (1 × 10^7 CFU/mL)
  MIC: 2 mg/L and 3.91 μM
[14]; value in brackets
  MBC: 7.82 µM
  MIC: 1.96 µM

## Clc1ccc(Cl)c(-c2ccc(/C=C/c3cc[n+](-c4ncccn4)cc3)o2)c1.F[P-](F)(F)(F)(F)F [PB5]
[1]
  MBC: 128 µg/mL
  MIC: 4 µg/mL
[1]; value in brackets
  MBC: 236.94 µM
  MIC: 7.40 µM
[2]
  MBC: 4 µg/mL
  MIC: 2 µg/mL
[2]; value in brackets
  MBC: 7.40 µM
  MIC: 3.70 µM
[4]
  MBC: 4 µg/mL
  MIC: 1 µg/mL
[4]; value in brackets
  MBC: 7.40 µM
  MIC: 1.85 µM
[5]
  MIC: > 128 µg/mL
[5]; value in brackets
  MIC: > 236.94 µM
[6]
  MIC: > 128 µg/mL
[6]; value in brackets
  MIC: > 236.94 µM
[7]; E. faecalis ATCC51299-VRE
  MBC: 128 µg/mL
  MIC: 4 mg/L
[7]; [15]
  MBC: 236.94 µM
  MIC: 7.40 µM
[7]; [16]
  MIC: 0.5 mg/L and 0.93 μM
[7]; [17]
  MIC: 1 mg/L and 1.85 μM
[7]; [18]
  MIC: 1 mg/L and 1.85 μM
[7]; [19]
  MIC: 1 mg/L and 1.85 μM
[7]; [20]
  MIC: 4 mg/L and 7.40 μM
[7]; [21]
  MIC: 4 mg/L and 7.40 μM
[7]; [22]
  MIC: 4 mg/L and 7.40 μM
[8]
  MIC: > 128 µg/mL
[8]; value in brackets
  MIC: > 236.94 µM
[9]; [23]
  MIC: 0.03 mg/L and 0.06 μM
[9]; [24]
  MIC: 0.03 mg/L and 0.06 μM
[9]; [25]
  MIC: 0.06 μM and 0.03 mg/L
[9]; [26]
  MIC: 0.06 mg/L and 0.12 μM
[9]; [27]
  MIC: 4 mg/L and 7.40 μM
[9]; [28]
  MIC: 4 mg/L and 7.40 μM
[9]; [29]
  MIC: 8 mg/L and 14.81 μM
[9]; S.aureus ATCC12598-MSSA
  MBC: 4 µg/mL
  MIC: 4 mg/L
[9]; [30]
  MBC: 7.40 µM
  MIC: 7.40 µM
[10]
  MBC: 4 µg/mL
[10]; value in brackets
  MBC: 7.40 µM
  MIC: 0.93 µM
[11]
  IC50: 3900 nM
[12]; by MBC/MIC ratio
  bactericidal/bacteriostatic activity: strain-dependent bactericidal/bacteriostatic activity
[13]; A. baumannii ATCC17978
  MIC: > 128 mg/L
[13]; [31]
  MIC: > 236.94 µM
[14]
  MIC: 32 mg/L
[14]; value in brackets
  MIC: 59.24 µM

— PMC8466554, “Heteroaryl-Ethylenes as New Lead Compounds in the Fight against High Priority Bacterial Strains” (Antibiotics, 2021)
